We go through 2 substances from patent US11613746B2, “Methods for developing virus protein specific capture agents, capture agents, and methods of using the capture agents” (priority 2019, dated 2023).

Read-outs that look alike come from different tables or passages of the source.

In the assay the target is T1, CHIKV E2 protein (Chikungunya virus, UniProt Q8JUX5).
T1 construct: incubated with varying concentrations of biotin conjugated CHIKV E2 protein
T1 sequence (Q8JUX5 326-748 limits assumed): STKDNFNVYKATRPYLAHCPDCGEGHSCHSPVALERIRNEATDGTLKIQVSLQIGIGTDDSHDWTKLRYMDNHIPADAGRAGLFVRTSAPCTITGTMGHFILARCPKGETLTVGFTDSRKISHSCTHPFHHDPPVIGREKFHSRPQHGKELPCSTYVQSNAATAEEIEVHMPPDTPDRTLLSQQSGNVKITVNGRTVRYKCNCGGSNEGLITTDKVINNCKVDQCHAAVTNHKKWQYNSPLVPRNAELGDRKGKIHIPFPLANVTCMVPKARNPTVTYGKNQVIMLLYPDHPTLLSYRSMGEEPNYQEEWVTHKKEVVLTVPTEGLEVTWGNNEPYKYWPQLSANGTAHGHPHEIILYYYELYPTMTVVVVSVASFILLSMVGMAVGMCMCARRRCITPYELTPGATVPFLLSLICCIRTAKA
The assay can be described thus: LUMINEX binding assay (sandwich-type) of bead-attached capture agents with biotin conjugated CHIKV E2 protein. Particulars: for EC50: FIG. 9. The protocol: Referring to FIG. 4, the binding performance of each capture agent is determined using a LUMINEX® binding assay, which is essentially the same as a sandwich-type ELISA, where the peptides are attached to a bead as a one-arm polyethylene glycol (PEG) or three-arm PEG construct. By allowing these beads to interact with varying concentrations of the CHIKV E2 protein, one can determine and compare the binding performance of each capture agent construct. A smaller value of the variable on the horizontal axis at the inflection point of a given plot for a corresponding capture agent indicates stronger binding for the corresponding capture agent with respect to the target protein or target molecule.
Referring to FIG. 4, the assay for an illustrative example was performed on a LUMINEX® 200 instrument. LUMINEX®'s xMAP technology drives multiplexed assay capabilities by combining fluidics, optics, and digital signal processing with microsphere technology. The LUMINEX® 200 is capable of testing up to 100 analytes simultaneously from a single sample and is the leading multiplex immunoassay technology. In general, the color-coded microspheres are the substrate on which the solution phase assays are performed, where a specific microsphere color corresponds to an individual receptor attached to the microsphere surface.
In one illustrative example, 6 separate microsphere regions were first functionalized with a single arm polyethlyglycine (PEG) azide molecule. Each microsphere region was then reacted with an individual, alkyne-functionalized cyclic peptide (with the sequence WIYYI, IYLRY, YWHWS, FWQIL), or an equal combination of all sequences (noted as “polyclonal”). As a control, polyclonal Anti-E2 antibody was attached to a bead region for performance comparison against the peptide constructs. In an analogous experiment, the exact same process was repeated, except the single arm PEG azide molecule was switched to a 3-arm PEG azide molecule.
The details of some of the synthesis and experimental techniques useful in the embodiments herein can be found in United States Patent Application Publication No. US 2017/0349754 A1, by Matthew B. Coppock, published Dec. 7, 2017, M. B. Coppock et al., “A novel discovery, maturation, and assay integration approach for the development of ruggedized multi-valent capture receptors exemplified against the chikungunya virus E2 protein,” Sensing and Bio-Sensing Research 22 (2019) 100248, and M. B. Coppock, D. N. Stratis-Cullum, “A universal method for the functionalization of dyed magnetic microspheres with peptides,” Methods 158 (2019) 12-16, all of which, including their supplemental parts and appendices, are incorporated by reference herein in their entirety. […]

On to WIYYI, for which the “binding activity remaining after heating” value (heated at 90° C. for 1 hr, result in words) is “no loss in binding activity”. The “binding performance compared to commercially available antibody raised against E2” value (multi-arm constructs, result in words) is given as “outperform the antibody”.
Regarding “WIYYI (chains of the parent or of the whole protein)”, the EC50 – broadly, the midpoint of the concentration-response curve – (heated at 90° C. for 1 hr before assay, read-out: EC50 (binding activity for CHIKV E2) after heating) came to 0.245 ± 0.005 nM and the EC50 (unheated control, LUMINEX assay, read-out: EC50 (binding activity for CHIKV E2) before heating) turned out to be 0.232 ± 0.006 nM.
